“Also recorded” adds a separate entry of the source.
Experiments:
rabbit corpus cavernosum [1] = assay: Direct relaxant effect of EBIO on contracted corpus cavernosum strips in organ baths; format: cell-based
rabbit corpus cavernosum [2] = assay: Mechanism of EBIO-induced relaxation (L-NOARG incubation, endothelium removal); format: cell-based; details: PE (10 μM) contracted
rabbit corpus cavernosum [3] = assay: Effect of EBIO on cGMP-mediated (SNP-induced) relaxation; format: cell-based; details: EBIO 50 μM; SNP dose response
rabbit corpus cavernosum [4] = assay: Effect on electrical field stimulation (EFS)-induced relaxation; format: cell-based
Method: Male New Zealand White rabbits (2.0-3.0 Kg) were killed by cervical dislocation. The abdominal cavity was opened and the penis excised, starting at the base of the organ at the pelvic bones. The corpus cavernosum was carefully dissected free from the surrounding tunica albuginea—2 tissue strips, approximately 10 mm×3 mm×2 mm in size, were obtained from each penis. The dissection was carried out in Krebs Ringer Solution. Tissues were used on the day of harvest.
The strips of corpus cavernosum and were mounted with surgical suture in 5 ml Wesley & Co. organ baths, and immersed in Kreb's solution maintained at 37° C. and aerated with 5% CO2/95% O2 to attain pH 7.4. The suture was connected to a force displacement transducer (Maywood Instruments Ltd.) and changes in isometric tension were recorded on the DART in vitro computer package. The tissues were put under an initial resting tension of 1.5 g and allowed to equilibrate for 1 hour. During equilibration, the tissues were rinsed at 5 ml/min. The approximate tissue tension after equilibration was 1 g. The tissues were then sensitised to contraction with phenylephrine (PE) (10 μM) and KCl (120 mM), and relaxation with sodium nitroprusside (SNP) (100 μM).
Tissues were bathed in “normal” Kreb's containing 5 μM guanethidine and 1 μM atropine, to block NA release and receptors respectively. EFS was delivered by a MS3 stimulator connected to 2 platinum electrodes which were placed at the top and bottom of the organ chambers. EFS parameters are as follows: Voltage=45-65V, Frequency=2-32 Hz, Pulse Width=0.2 ms, Train Duration=10 s. […] An EFS curve involved stimulating PE-contracted tissues at 2 Hz, 4 Hz, 8 Hz, 16 Hz and 32 Hz, and the degree of relaxation was measured by taking the minimum reading from the maximum reading obtained over a 30 s period. […]
For each dose response curve, the relaxation responses are expressed as a percentage of the PE-induced contraction. […] For EFS response curves, the degree of relaxation was expressed as a percentage of the PE-induced contraction. […]

rabbit aorta = assay: Selectivity of EBIO for corpus cavernosum over cardiovascular tissue (isolated aorta); format: cell-based; details: in vitro
Method: PE (1 μM) or 80 mM K^+ contracted rabbit aorta sections were subjected to half-log unit cumulative additions of EBIO (10 nM-1 mM) with approximately 10 minute intervals between each addition.
For each dose response curve, the relaxation responses are expressed as a percentage of the PE-induced contraction. The mean values±s.e. mean are then plotted against log[drug] concentration. Sigmoidal curves were fitted to the data using Origin curve fitting computer package. For the purpose of curve fitting, the minimum relaxation response is constrained to 0% and the maximum relaxation response is allowed to free fit. For EFS response curves, the degree of relaxation was expressed as a percentage of the PE-induced contraction. These values were then plotted against the frequency of stimulation.

## CCn1c(=O)[nH]c2ccccc21 [EBIO, 1-ethyl-2-benzimidazolinone]
Rabbit corpus cavernosum [1]; Oryctolagus cuniculus, relaxation of rabbit corpus cavernosum
  IC20: ~50 µM
Rabbit corpus cavernosum [1]; PE (10 μM) contracted, EBIO 10 nM-1 mM cumulative, in vitro
  relaxation of PE-contracted rabbit corpus cavernosum: concentration-dependent relaxation; also recorded: concentration dependent relaxation
Rabbit corpus cavernosum [1]; rabbit corpus cavernosum basal tone
  concentrations at which basal tone is suppressed: ≥ 10 µM
Rabbit corpus cavernosum [2]; L-NOARG
  EBIO-induced relaxation in the presence of L-NOARG (NOS inhibitor): still observed
Rabbit corpus cavernosum [2]; endothelium removed
  EBIO-induced relaxation in endothelium deprived corpus cavernosum: still observed; also recorded: not affected
Rabbit corpus cavernosum [3]
  effect on SNP-induced relaxation of PE-contracted corpus cavernosum: potentiates; also recorded: enhanced
Rabbit corpus cavernosum [4]; EBIO 50 μM, 2-32 Hz
  effect on EFS-induced relaxation of PE-contracted corpus cavernosum: greatly potentiates; also recorded: enhanced
Rabbit aorta
  concentrations at which a relaxant effect on rabbit aorta occurs: ≥ 100 µM
Rabbit aorta; PE (1 μM) or 80 mM K+ contracted, concentrations up to 100 μM
  relaxant effect on rabbit aorta: no relaxant effect
Blood pressure in vivo
  effect on blood pressure in vivo: no effect

## charybdotoxin [ChTX]
Rabbit corpus cavernosum [4]; ChTX 100 nM with EBIO 50 μM
  effect of ChTX on EBIO-induced potentiation of EFS-induced relaxation: caused a reduction; also recorded: sensitive
Rabbit corpus cavernosum [4]; ChTX 100 nM, across the frequency range
  attenuation of endogenous NO-mediated (EFS-induced) relaxation: up to 30%
